Data published in patent US9555039B2, “Piperidine derivatives and compositions for the inhibition of nicotinamide phosphoribosyltransferase (NAMPT)” (Forma TM, LLC., priority 2011, dated 2017).

Key:
[1] = tested on: A2780 cells; assay: In-vitro cell proliferation assay (SRB, 72 hours); type: cell-based; conditions: Homo sapiens, sulforhodamine B (SRB) assay
In short: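 Viable cells measured by TCA fixation and SRB staining, absorbance 570 nm; % inhibition vs DMSO control after media-only background subtraction, interpolated between two bracketing concentrations.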

[2] = molecular target: T1, Recombinant His-tagged NAMPT (Homo sapiens, UniProt P43490); assay: Biochemical inhibition assay: NAMPT enzymatic reaction, NMN quantified by mass spectrometry; conditions: 33 nM NAMPT, 1 μM NAM, 100 μM PRPP, 2.5 mM ATP, 30 minutes at room temperature; read-out: Biochem IC50
T1 construct: His; host or cells: E. coli
T1 sequence (P43490 whole entry): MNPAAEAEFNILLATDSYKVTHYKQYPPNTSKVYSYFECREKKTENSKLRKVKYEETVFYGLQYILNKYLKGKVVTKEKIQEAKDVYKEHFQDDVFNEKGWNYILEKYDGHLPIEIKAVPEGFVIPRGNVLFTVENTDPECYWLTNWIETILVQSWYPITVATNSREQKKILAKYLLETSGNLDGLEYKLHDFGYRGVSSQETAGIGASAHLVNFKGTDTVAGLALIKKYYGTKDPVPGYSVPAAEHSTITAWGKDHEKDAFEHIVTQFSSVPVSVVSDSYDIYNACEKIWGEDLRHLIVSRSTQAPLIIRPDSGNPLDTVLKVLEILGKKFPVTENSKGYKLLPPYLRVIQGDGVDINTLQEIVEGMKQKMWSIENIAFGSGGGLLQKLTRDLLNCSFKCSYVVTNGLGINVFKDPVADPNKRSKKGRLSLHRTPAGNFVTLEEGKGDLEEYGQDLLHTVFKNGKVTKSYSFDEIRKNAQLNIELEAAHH
In short: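 Reaction 30 min at room temperature with 1 μM NAM, 100 μM PRPP, 2.5 mM ATP (final), quenched with formic acid. NMN quantified by RapidFire electrospray MS, normalized to L-cystathionine; IC50 from percent inhibition versus DMSO.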

COc1cccc(C(=O)N2CCN(CCCCNC(=O)c3cc4cnccc4[nH]3)CC2)c1 [N-(4-{4-[(3-methoxyphenyl)carbonyl]piperazin-1-yl}butyl)-1H-pyrrolo[3,2-c]pyridine-2-carboxamide]
IC50 [1]: 855 nM
IC50 [2]: 436 nM

COc1ncc(Cl)cc1C(=O)N1CCC(CCCCNC(=O)c2cc3ccncc3s2)CC1 [N-(4-{1-[(5-chloro-2-methoxypyridin-3-yl)carbonyl]piperidin-4-yl}butyl)thieno[2,3-c]pyridine-2-carboxamide]
IC50 [1]: 7.1 nM
IC50 [2]: 17 nM

COc1ncc(Cl)cc1C(=O)N1CCC(CCCCNC(=O)c2cc3cnccc3[nH]2)CC1 [N-(4-{1-[(5-chloro-2-methoxypyridin-3-yl)carbonyl]piperidin-4-yl}butyl)-1H-pyrrolo[3,2-c]pyridine-2-carboxamide]
IC50 [1]: 3.3 nM
IC50 [2]: 30.3 nM

O=C(NCCCCC1CCN(C(=O)c2ccc(OC(F)(F)F)cc2)CC1)c1cc2ccncc2s1 [N-[4-(1-{[4-(trifluoromethoxy)phenyl]carbonyl}piperidin-4-yl)butyl]thieno[2,3-c]pyridine-2-carboxamide]
IC50 [1]: 100 to 1000 nM
IC50 [2]: 166 nM

COc1ccc(C(=O)N2CCC(CCCCNC(=O)c3ccc4nccn4c3)CC2)cc1OC [N-(4-{1-[(3,4-dimethoxyphenyl)carbonyl]piperidin-4-yl}butyl)imidazo[1,2-a]pyridine-6-carboxamide]
IC50 [1]: 2.9 nM
IC50 [2]: 38.5 nM

O=C(NCCCCC1CCN(C(=O)c2cccc(F)c2)CC1)c1cc2cnccc2[nH]1 [N-(4-{1-[(3-fluorophenyl)carbonyl]piperidin-4-yl}butyl)-1H-pyrrolo[3,2-c]pyridine-2-carboxamide]
IC50 [1]: 3.3 nM
IC50 [2]: 16.4 nM

O=C(NCCCCC1CCN(C(=O)c2cccnc2)CC1)c1cc2ccncc2s1 [N-(4-{1-[(pyridin-3-yl)carbonyl]piperidin-4-yl}butyl)thieno[2,3-c]pyridine-2-carboxamide]
IC50 [1]: 27.4 nM
IC50 [2]: 11.1 nM

O=C(NCCCCC1CCN(C(=O)c2cnccc2C(F)(F)F)CC1)c1cc2ccncc2s1 [N-[4-(1-{[4-(trifluoromethyl)pyridin-3-yl]carbonyl}piperidin-4-yl)butyl]thieno[2,3-c]pyridine-2-carboxamide]
IC50 [1]: 6.9 nM
IC50 [2]: 9.9 nM

Cc1ncsc1C(=O)N1CCC(CCCCNC(=O)c2ccc3nccn3c2)CC1 [N-(4-{1-[(4-methyl-1,3-thiazol-5-yl)carbonyl]piperidin-4-yl}butyl)imidazo[1,2-a]pyridine-6-carboxamide]
IC50 [1]: 0.8 nM
IC50 [2]: 2.9 nM

O=C(NCCCCC1CCN(C(=O)c2csc(-c3cccnc3)n2)CC1)c1ccc2nccn2c1 [N-[4-(1-{[2-(pyridin-3-yl)-1,3-thiazol-4-yl]carbonyl}piperidin-4-yl)butyl]imidazo[1,2-a]pyridine-6-carboxamide]
IC50 [1]: 67 nM
IC50 [2]: 61.1 nM

Cc1nc(C(=O)N2CCC(CCCCNC(=O)c3cc4cnccc4[nH]3)CC2)cs1 [N-(4-{1-[(2-methyl-1,3-thiazol-4-yl)carbonyl]piperidin-4-yl}butyl)-1H-pyrrolo[3,2-c]pyridine-2-carboxamide]
IC50 [1]: 25 nM
IC50 [2]: 69.5 nM

O=C(NCCCCC1CCN(C(=O)c2cc3cnccc3[nH]2)CC1)c1cc2cnccc2[nH]1 [N-{4-[1-({1H-pyrrolo[3,2-c]pyridin-2-yl}carbonyl)piperidin-4-yl]butyl}-1H-pyrrolo[3,2-c]pyridine-2-carboxamide]
IC50 [1]: 11.3 nM
IC50 [2]: 20.9 nM

O=C(NCCCCC1CCN(S(=O)(=O)c2ccc(Cl)cc2)CC1)c1cc2cnccc2[nH]1 [N-(4-{1-[(4-chlorobenzene)sulfonyl]piperidin-4-yl}butyl)-1H-pyrrolo[3,2-c]pyridine-2-carboxamide]
IC50 [1]: 27.5 nM
IC50 [2]: 49.9 nM

COc1ccccc1C(=O)N1CCC(CCCCNC(=O)c2cc3ccncc3s2)CC1 [N-(4-{1-[(2-methoxyphenyl)carbonyl]piperidin-4-yl}butyl)thieno[2,3-c]pyridine-2-carboxamide]
IC50 [1]: 3.3 nM
IC50 [2]: 7.7 nM

CCOc1ccccc1C(=O)N1CCC(CCCCNC(=O)c2ccc3nccn3c2)CC1 [N-(4-{1-[(2-ethoxyphenyl)carbonyl]piperidin-4-yl}butyl)imidazo[1,2-a]pyridine-6-carboxamide]
IC50 [1]: 0.7 nM
IC50 [2]: 5.2 nM

O=C(NCCCCC1CCN(C(=O)c2cnccc2C(F)(F)F)CC1)c1ccc2nccn2c1 [N-[4-(1-{[4-(trifluoromethyl)pyridin-3-yl]carbonyl}piperidin-4-yl)butyl]imidazo[1,2-a]pyridine-6-carboxamide]
IC50 [1]: 3.8 nM
IC50 [2]: 15.6 nM

COc1ccc(C(=O)N2CCC(CCCCNC(=O)c3cc4ccncc4s3)CC2)cc1F [N-(4-{1-[(3-fluoro-4-methoxyphenyl)carbonyl]piperidin-4-yl}butyl)thieno[2,3-c]pyridine-2-carboxamide]
IC50 [1]: 100 to 1000 nM
IC50 [2]: 71.4 nM

CC(C)Oc1ccc(C(=O)N2CCC(CCCCNC(=O)c3ccc4nccn4c3)CC2)cc1 [N-[4-(1-{[4-(propan-2-yloxy)phenyl]carbonyl}piperidin-4-yl)butyl]imidazo[1,2-a]pyridine-6-carboxamide]
IC50 [1]: 20.9 nM
IC50 [2]: 55.2 nM

Cc1ncccc1C(=O)N1CCC(CCCCNC(=O)c2ccc3nccn3c2)CC1 [N-(4-{1-[(2-methylpyridin-3-yl)carbonyl]piperidin-4-yl}butyl)imidazo[1,2-a]pyridine-6-carboxamide]
IC50 [1]: 1.8 nM
IC50 [2]: 9.8 nM

COc1ccc(C(=O)N2CCC(CCCCNC(=O)c3cc4cnccc4[nH]3)CC2)cc1F [N-(4-{1-[(3-fluoro-4-methoxyphenyl)carbonyl]piperidin-4-yl}butyl)-1H-pyrrolo[3,2-c]pyridine-2-carboxamide]
IC50 [1]: 21 nM
IC50 [2]: 63.1 nM

COCc1ccc(C(=O)N2CCC(CCCCNC(=O)c3cc4cnccc4[nH]3)CC2)nc1 [N-[4-(1-{[5-(methoxymethyl)pyridin-2-yl]carbonyl}piperidin-4-yl)butyl]-1H-pyrrolo[3,2-c]pyridine-2-carboxamide]
IC50 [1]: 14.2 nM
IC50 [2]: 31.1 nM

O=C(NCCCC1CCN(C(=O)c2ccccc2)CC1)c1cc2cnccc2[nH]1 [N-(3-(1-benzoylpiperidin-4-yl)propyl)-1H-pyrrolo[3,2-c]pyridine-2-carboxamide]
IC50 [1]: 432 nM
IC50 [2]: 126 nM

COc1cc(Cl)ccc1C(=O)N1CCC(CCCCNC(=O)c2ccc3nccn3c2)CC1 [N-(4-{1-[(4-chloro-2-methoxyphenyl)carbonyl]piperidin-4-yl}butyl)imidazo[1,2-a]pyridine-6-carboxamide]
IC50 [1]: 27 nM
IC50 [2]: 80.6 nM

Cc1ccc(F)cc1C(=O)N1CCC(CCCCNC(=O)c2ccc3nccn3c2)CC1 [N-(4-{1-[(5-fluoro-2-methylphenyl)carbonyl]piperidin-4-yl}butyl)imidazo[1,2-a]pyridine-6-carboxamide]
IC50 [1]: 3.9 nM
IC50 [2]: 10.9 nM

CSc1ncccc1C(=O)N1CCC(CCCCNC(=O)c2ccc3nccn3c2)CC1 [N-[4-(1-{[2-(methylsulfanyl)pyridin-3-yl]carbonyl}piperidin-4-yl)butyl]imidazo[1,2-a]pyridine-6-carboxamide]
IC50 [1]: 0.7 nM
IC50 [2]: 5.5 nM

O=C(NCCCCC1CCN(C(=O)c2cc3ccccc3s2)CC1)c1cc2cnccc2[nH]1 [N-(4-{1-[(1-benzothiophen-2-yl)carbonyl]piperidin-4-yl}butyl)-1H-pyrrolo[3,2-c]pyridine-2-carboxamide]
IC50 [1]: 69.9 nM
IC50 [2]: 124 nM
